Laboratory results published in patent publication US3940441A (priority 1974, dated 1976).
≈ marks a conversion by molar mass, not a printed value. Where two headings read alike, the source gives them in different places.

Key:
Endamoeba criceti = test: chemotherapeutic evaluation in vivo in hamsters infected with Endamoeba criceti (amebacidal activity); design: species or system hamster; settings: oral
Staphylococcus aureus = test: microbe, parasite or virus in culture; assay type: cell-based; settings: for MBC / MIC: Staphylococcus aureus; for MBC: read-out: Minimum Effective Concentration, Bactericidal
Eberthella typhi = test: microbe, parasite or virus in culture; assay type: cell-based; settings: for MBC: read-out: Minimum Effective Concentration, Bactericidal; for MIC: read-out: Minimum Effective Concentration, Bacteriostatic
Clostridium welchii = test: microbe, parasite or virus in culture; assay type: cell-based
Pseudomonas aeruginosa = test: microbe, parasite or virus in culture; assay type: cell-based; settings: for MBC / MIC: Pseudomonas aeruginosa; for MBC: read-out: Minimum Effective Concentration, Bactericidal
Streptococcus sp. = test: microbe, parasite or virus in culture; assay type: cell-based; settings: for MBC / MIC: Streptococcus; for MBC: read-out: Minimum Effective Concentration, Bactericidal; for MIC: read-out: Minimum Effective Concentration, Bacteriostatic
Escherichia coli = test: microbe, parasite or virus in culture; assay type: cell-based; settings: read-out: Minimum Inhibitory Concentration
Proteus vulgaris = test: microbe, parasite or virus in culture; assay type: cell-based; settings: read-out: Minimum Inhibitory Concentration
[1] = read-out: Minimum Effective Concentration, Bacteriostatic
[2] = Clostridium, read-out: Minimum Effective Concentration, Bactericidal
[3] = Clostridium, read-out: Minimum Effective Concentration, Bacteriostatic
[4] = read-out: Minimum Inhibitory Concentration

| Compound | MBC (Staphylococcus aureus) [µg/mL] | MIC (Staphylococcus aureus; [1]) [µg/mL] | MBC (Eberthella typhi) [µg/mL] | MIC (Eberthella typhi) [µg/mL] | MBC (Clostridium welchii; [2]) [µg/mL] | MIC (Clostridium welchii; [3]) [µg/mL] | MBC (Pseudomonas aeruginosa) [µg/mL] | MIC (Pseudomonas aeruginosa; [1]) [µg/mL] | also measured |
| --- | --- | --- | --- | --- | --- | --- | --- | --- | --- |
| O=[N+]([O-])c1ccc(Oc2ccc(C=NCCN=Cc3ccc(Oc4ccc([N+](=O)[O-])cc4)cc3)cc2)cc1 [Example 3, N,N'-bis[4-(4'-nitrophenoxy)benzal]-1,2-ethanediamine] | – | – | – | – | – | – | – | – | animals cleared of amebic infection (Endamoeba criceti; 100 mg./kg./day): 2 out of 5 |
| O=[N+]([O-])c1ccc(Oc2ccc(CNCCCCCCNCc3ccc(Oc4ccc([N+](=O)[O-])cc4)cc3)cc2)cc1 [Example 7, N,N'-bis[4-(4'-nitrophenoxy)benzyl]-1,6-hexanediamine] | 7.5 (≈ 13.1 µM) | 1 (≈ 1.75 µM) | 50 (≈ 87.6 µM) | 7.5 (≈ 13.1 µM) | 25 (≈ 43.8 µM) | 25 (≈ 43.8 µM) | 500 (≈ 876 µM) | 250 (≈ 438 µM) | – |
| O=[N+]([O-])c1ccc(Oc2ccc(C=NCCCCCCCCN=Cc3ccc(Oc4ccc([N+](=O)[O-])cc4)cc3)cc2)cc1 [Example 2, N,N'-bis[4-(4'-nitrophenoxy)benzal]-1,8-octanediamine] | – | – | – | – | – | – | – | – | animals cleared of amebic infection (Endamoeba criceti; 12.5 mg./kg./day): 1 out of 5; animals cleared of amebic infection (Endamoeba criceti; 25 mg./kg./day): 2 out of 5; animals cleared of amebic infection (Endamoeba criceti; 50 mg./kg./day): 2 out of 5 |
| O=[N+]([O-])c1ccc(Oc2ccc(CNC[C@H]3CC[C@H](CNCc4ccc(Oc5ccc([N+](=O)[O-])cc5)cc4)CC3)cc2)cc1 [Example 10A, Trans-1,4-bis[4-(4'-nitrophenoxy)benzylaminomethyl]cyclohexane] | 50 (≈ 83.8 µM) | 10 (≈ 16.8 µM) | 75 (≈ 126 µM) | 50 (≈ 83.8 µM) | 100 (≈ 168 µM) | 100 (≈ 168 µM) | – | – | MBC (Streptococcus sp.): 25 µg/mL (≈ 41.9 µM); MIC (Streptococcus sp.): 25 µg/mL (≈ 41.9 µM) |
| 2,2'-Dimethylbis{2-[4-(4'-nitrophenoxy)benzylamino]-ethyl}amine and 1,2'-Dimethylbis{2-[4-(4'-nitrophenoxy)benzylamino]ethyl}amine (Mixture of Isomers) [Example 9A] | – | – | – | – | – | – | – | – | Minimum Effective Concentration, Bactericidal (Staphylococcus aureus): 0.025 mg./cc.; Minimum Effective Concentration, Bacteriostatic (Staphylococcus aureus): 0.005 mg./cc.; Minimum Effective Concentration, Bactericidal (Eberthella typhi): 0.25 mg./cc.; Minimum Effective Concentration, Bacteriostatic (Eberthella typhi): 0.1 mg./cc.; Minimum Effective Concentration, Bactericidal (Clostridium welchii): 0.005 mg./cc.; Minimum Effective Concentration, Bacteriostatic (Clostridium welchii): 0.001 mg./cc.; Minimum Effective Concentration, Bactericidal (Pseudomonas aeruginosa): > 1.0 mg./cc.; Minimum Effective Concentration, Bacteriostatic (Pseudomonas aeruginosa): 0.5 mg./cc.; Minimum Effective Concentration, Bactericidal (Streptococcus sp.): 0.01 mg./cc.; Minimum Effective Concentration, Bacteriostatic (Streptococcus sp.): 0.0075 mg./cc. |
| CN(CCCCCCN(C)Cc1ccc(Oc2ccc([N+](=O)[O-])cc2)cc1)Cc1ccc(Oc2ccc([N+](=O)[O-])cc2)cc1 [Example 11A, N,N'-Dimethyl-N,N'-bis[4-(4'-nitrophenoxy)-benzyl]-1,6-hexanediamine] | 250 (≈ 418 µM) | 5 (≈ 8.35 µM) | 750 (≈ 1250 µM) | 500 (≈ 835 µM) | 500 (≈ 835 µM) | 250 (≈ 418 µM) | – | – | MBC (Streptococcus sp.): 5 µg/mL (≈ 8.35 µM); MIC (Streptococcus sp.): 5 µg/mL (≈ 8.35 µM) |
| Nc1ccc(Oc2ccc(CNCCCCCCCCNCc3ccc(Oc4ccc(N)cc4)cc3)cc2)cc1 [Example 14A, N,N'-bis[4-(4'-aminophenoxy)benzyl]-1,8-octanediamine] | 25 (≈ 46.4 µM) | 7.5 (≈ 13.9 µM) | 75 (≈ 139 µM) | 50 (≈ 92.8 µM) | – | – | 1000 (≈ 1860 µM) | 750 (≈ 1390 µM) | MBC (Clostridium welchii; Clostridium; read-out: Minimum Effective Concentration, Bactericidal): 100 µg/mL (≈ 186 µM); MIC (Clostridium welchii; Clostridium; read-out: Minimum Effective Concentration, Bacteriostatic): 100 µg/mL (≈ 186 µM); MBC (Streptococcus sp.): 50 µg/mL (≈ 92.8 µM); MIC (Streptococcus sp.): 25 µg/mL (≈ 46.4 µM) |
| O=[N+]([O-])c1ccc(Oc2ccc(CNCCNCc3ccc(Oc4ccc([N+](=O)[O-])cc4)cc3)cc2)cc1 [Example 8, N,N'-bis[4-(4'-nitrophenoxy)benzyl]-1,2-ethanediamine] | 50 (≈ 97.2 µM) | 10 (≈ 19.4 µM) | > 100 | 75 (≈ 146 µM) | 1 (≈ 1.94 µM) | 0.5 (≈ 0.972 µM) | > 100 | 75 (≈ 146 µM) | – |
| O=[N+]([O-])c1ccc(Oc2ccc(CNCCCNCCCNCc3ccc(Oc4ccc([N+](=O)[O-])cc4)cc3)cc2)cc1 [Example 9B, Bis{3-[4-(4'-nitrophenoxy)benzylamino]propyl}amine] | – | – | – | – | – | – | – | – | MIC (Staphylococcus aureus; [4]): 0.05 µg/mL (≈ 0.0854 µM); MIC (Pseudomonas aeruginosa; [4]): 3.1 µg/mL (≈ 5.29 µM); MIC (Escherichia coli): 0.2 µg/mL (≈ 0.341 µM); MIC (Proteus vulgaris): 125 µg/mL (≈ 213 µM) |
| O=[N+]([O-])c1ccc(Oc2ccc(CNCCCCCCCCNCc3ccc(Oc4ccc([N+](=O)[O-])cc4)cc3)cc2)cc1 [Example 6A, N,N'-bis[4-(4'-nitrophenoxy)benzyl]-1,8-octanediamine] | 5 (≈ 8.35 µM) | 0.5 (≈ 0.835 µM) | 25 (≈ 41.8 µM) | 7.5 (≈ 12.5 µM) | 75 (≈ 125 µM) | 50 (≈ 83.5 µM) | 1000 (≈ 1670 µM) | 750 (≈ 1250 µM) | – |
| O=C(Nc1ccccc1)N(CCCCCCN(Cc1ccc(Oc2ccc([N+](=O)[O-])cc2)cc1)C(=O)Nc1ccccc1)Cc1ccc(Oc2ccc([N+](=O)[O-])cc2)cc1 [Example 12A, N,N'-bis[4-(4'-nitrophenoxy)benzyl]-N,N'-bis(phenylcarbamyl)-1,6-hexanediamine] | 75 (≈ 92.7 µM) | 75 (≈ 92.7 µM) | > 100 | 75 (≈ 92.7 µM) | 100 (≈ 124 µM) | 75 (≈ 92.7 µM) | > 100 | 75 (≈ 92.7 µM) | – |
| Cc1c(C)c(CCNCc2ccc(Oc3ccc([N+](=O)[O-])cc3)cc2)c(C)c(C)c1CCNCc1ccc(Oc2ccc([N+](=O)[O-])cc2)cc1 [Example 16A, Bis{2-[4-(4'-nitrophenoxy)benzylamino]ethyl}-2,3,5,6-tetramethylbenzene] | 75 (≈ 111 µM) | 7.5 (≈ 11.1 µM) | 750 (≈ 1110 µM) | 100 (≈ 148 µM) | 250 (≈ 370 µM) | 100 (≈ 148 µM) | – | – | MBC (Streptococcus sp.): 25 µg/mL (≈ 37 µM); MIC (Streptococcus sp.): 2.5 µg/mL (≈ 3.7 µM) |
| O=[N+]([O-])c1ccc(Oc2ccc(C=NCCCCCCN=Cc3ccc(Oc4ccc([N+](=O)[O-])cc4)cc3)cc2)cc1 [Example 1A, N,N'-bis[4-(4'-nitrophenoxy)benzal]-1,6-hexanediamine] | – | – | – | – | – | – | – | – | animals cleared of amebic infection (Endamoeba criceti; 25 mg./kg./day): 4 out of 10; animals cleared of amebic infection (Endamoeba criceti; 50 mg./kg./day): 6 out of 10; animals cleared of amebic infection (Endamoeba criceti; 100 mg./kg./day): 3 out of 5 |
| O=C(C(Cl)Cl)N(CCN(Cc1ccc(Oc2ccc([N+](=O)[O-])cc2)cc1)C(=O)C(Cl)Cl)Cc1ccc(Oc2ccc([N+](=O)[O-])cc2)cc1 [Example 13A, N,N'-bis(dichloroacetyl)-N,N'-bis[4-(4'-nitrophenoxy)benzyl]-1,2-ethanediamine] | > 1000 | 750 (≈ 1020 µM) | 750 (≈ 1020 µM) | 750 (≈ 1020 µM) | > 1000 | 750 (≈ 1020 µM) | 750 (≈ 1020 µM) | 750 (≈ 1020 µM) | – |
